No end group written: not given here. *: point of attachment. FITC = O=C1OC2(c3ccc(O)cc3Oc3cc(O)ccc32)c2ccc(NC(=S)*)cc21
Assays:
luciferase in Huh7 cells = experiment: Luciferase assay with siRNA-CPP conjugates, Huh7; type: cell-based, human; conditions: Huh cell line, siRNA 400 nM, 16 hours
Protocol: Huh7 (human hepatocellular carcinoma) cells obtained from ATCC was cultured in a RPMI 1640 medium (Hyclon) containing 10% fetal bovine serum (Invitrogen Co., Carlsbad, Calif., USA), […] L-glutamine, 100 ug/ml penicillin and 100 units/ml of streptomycin at 37° C., 5% CO2 incubator.
(§1) 2×10^5 of Huh7 cells were inserted into each well of a 24 well plate and were grown. Transient transfection on the cells was performed using 2 ug of luciferase objective DNA and lipofectamin 2000 (Invitrogen Co., Carlsbad, Calif., USA). After 4 hours, lipofectamin 2000 was perfectly washed with PBS several times; siRNA of final concentration of […] was treated in 500 ul of Opti-MEM (Invitrogen Co., Carlsbad, Calif., USA) and was reacted at 37° C. incubator for 16 hours. To terminate the reaction, cells were washed with PBS and proteins were lysed using Reporter Lysis Buffer (Progema Co., Madison, Wis., USA) solution and the luminescence was measured by luminometer (Turner BioSystem, Sunnyvale, Calif., USA) using luciferase reagent (Promega Co., Madison, Wis., USA). Efficacy of siRNA was corrected by Bradford protein assay.

luciferase in CHO cell = experiment: Luciferase assay with siRNA-CPP conjugates, CHO; type: cell-based
Protocol: as §1
To verify cell penetrating property of pep1, siRNA for luciferase purpose was produced produced and luciferase activation was measured using Huh7 (human hepatocelular carcinoma) cells and CHO cell line. The result verified that activation of penetratine and pep1 in siRNA combined with luciferase was reduced approx. 28%, 20% compared with penetratin and pep1 in siRNA combined with control in Huh cell line. […]

Huh7, HepG2, CHO, bmDC = experiment: Flow cytometry and confocal analysis depending on location of FITC; type: cell-based; conditions: fluorescence microscope
Protocol: (§2) The cell line was divided in a 6-well plate and cultured in a medium containing 10% fetal bovine serum (Invitrogen, USA), 100 μg/ml penicillin, 100 units/ml streptomycin at 37° C., 5% CO2 incubator for 12 hours. After washing the cell line with PBS, starvation was induced in a Minimum Essential Medium for an hour. 20 uM of each carrier peptide was treated and cultured at 37° C. for an hour. After repeating the step of washing the cells with PBS for three times, Trypsin-EDTA was treated form 10 mins at 37° C. to separate the carrier peptide on the outside of the cell. cells were collected with refrigerated PBS and centrifugation was performed to repeat the step of washing the cells for three times. After then, the cells were suspended in 0.5 ml of PBS containing 4% Paraformaldehyde and fluorescence of the cells was analyzed using FACS Calibur (Becton Dickinson). The cellular uptake aspect of control and various peptides combined with FITC was compared and analyzed by MFI (Mean Fluorescence Intensity).
To investigate cell penetrating property of PEP1 in various cell lines, flow cytometry and Confocal microscope analysis were performed using a conjugate of PEP1 combined with FITC at N, and C-terminal of the peptide. The analytical method used was same as described in above (1) HeLa cell line analysis. The cell lines used were Huh7, HepG2, CHO, bmDC. […] (FIG. 14)

hPBMC = experiment: Cell penetrating property after treatment with various antibodies; type: cell-based, human
Protocol: The fact that HSP70/90 plays an important role in cell penetrating property of Pep1 was analyzed using HSP70/90 antibody. Antibodies of GAPDH, HSP70, HSP90 and enolase were treated in PBMC separated from human blood, lymphocyte, and Jurkat to perform flow cytometry. Antibodies of GAPDH and enolase were used as control.
(§3) To compare and analyze the cell penetrating property of the peptide using various various antibodies, HSP70, enolase, GAPDH (santacruz), HSP90 antibodies were used. Cells were treated with heparin (10 μg/ml), methyl beta cyclodextrin (5 mM), nocodazole (20 μM), Brefeldin A (10 μM), cytochalasin F (5 μM) or choloroqune (100 μM) an hour before cells were cultured by the peptide. After then, cells were washed with PBS, peptide treatment was performed by flow cytometry analysis as the same method described in Example 2. Anti-HSP70, anti-Enolase and anti-GAPDH antibodies were purchased from Santacruz and anti-HSP90 antibody as purchased from Abcam. To analyze the role of each protein in penetration into cells, cells were treated with antibodies corresponding to the proteins with the same method.

Huh7, bmDC, CHO, COS7 = experiment: Flow cytometry depending on concentration in various cell lines; type: cell-based
Protocol: (§4) Cells were cultured at 37° C., 5% CO2 incubator and grown to 90˜100% confluence. The confluence. The medium was removed and washed with PBS, 1 mL of OPTI-MEM was added to each well and cultured at 37° C., 5% CO2 incubator for an hour for cell starvation. After washing with OPTI-MEM once, cells were treated with peptide in OPTI-MEM (concentration of […]) and FITC (concentration of 10 μM), cultured at 37° C., 5% CO2 incubator. After removing the medium, cells were washed with 1×PBS three times and harvested using Trysin/EDTA. The cellular uptake of FITC and the rest of FITC-conjugated peptide was compared and analyzed with untreated cell cells as a control.
(§5) Cell penetrating property of PEP1 was investigated by treating PEP1 with various cell various cell lines depending on concentrations and time. Specific analytical methods followed the methods described in Example 2. […] In the case of HepG2 cell line, cell penetrating property of TAT was increased whereas that of PEP1 was decreased at a concentration of 50 μM. […] When observing cell penetrating property of the peptide depending on time, the cell penetrating property was increased in Huh7, MCF7 and HeLA cell lines. Especially, in MCH7 cell line when 5 μM of the peptide was treated, cell penetrating property was increased 10 times higher in all time (FIG. 24 to FIG. 26)

HepG2 cell line = experiment: Flow cytometry depending on concentration, HepG2; type: cell-based, human; conditions: HepG2, 50 μM
Protocol: as §4, §5

Raji (Human B cell line) = experiment: Flow cytometry of cell penetrating property, Raji; type: cell-based
Description: (§6) Jurkat (Human T cell line), THP1 (Human mononuclear cell line), Raji (Human B cell line), K562 cell line (Human Leukemia cell line) were used as enriched cell line to treat the peptide depending on concentrations, temperature and time and to analyze the cell penetrating property of the peptide. […] There was no difference in cell penetrating property of PEP1 in all cell lines depending on temperature.

[1] = system: K562 cell line (Human Leukemia cell line); experiment: Flow cytometry of cell penetrating property, K562; type: cell-based
Description: as §6

human PBMC [2] = experiment: Flow cytometry of cell penetrating property in human PBMC; type: cell-based
Protocol: PBMC (peripheral blood mononuclear cell) and lymphocytes were prepared from the human blood samples (50 ml) collected from healthy subjects using Biocoll Separating Solution (Biochrom AG, Berlin, Germany).
PBMC separated from human blood was used to treat the peptide depending on concentrations, temperature and time and to analyze the cell penetrating property of the peptide. […] Depending on concentrations, cell penetrating property of PEP1 was increased in both lymphocytes and the monocytes. […] (FIG. 32 to FIG. 34)

human PBMC [3] = experiment: Flow cytometry after chemical treatment, human PBMC; type: cell-based; conditions: whole PBMC, chemical treatment an hour before peptide
Protocol: With PBMC separated from human blood, chemical treatment utilization analysis was performed to verify a mechanism of cell penetration. Concentration of chemical treatment was decided based on the data reported in JBC(278(36), 34141-34149 in […]. OPTI-MEM was treated with chemical treatment and washed with PBS an hour before PEP1 peptide was treated and flow cytometry analysis was performed.
as §3

Jurkat cell line = experiment: Flow cytometry after chemical treatment, Jurkat; type: cell-based, human; conditions: all of the chemical treatment
CHO and HepG2 cells = experiment: Uptake analysis of pep1-FITC in vitro by flow cytometry (primary experiment); type: cell-based
Protocol: Flow cytometry and Confocal microscopy analysis were performed to compare the degree of cellular uptake among differentcell lines treated with pep1 (SEQ ID NO: 1) and the previously known PTD, TAT ([…]) (SEQ ID NO: 10) of HIV.
as §4

Huh7 cell line = experiment: Flow cytometry of cell penetrating property in Huh7 cell line; type: cell-based, human
Protocol: as §2
To investigate cell penetrating property of PEP1, flow cytometry was performed in Huh7 cell line treated with PEP1. The analytical methods used were same as described in above (1) HeLa cell line analysis. […] (FIG. 9 and FIG. 10)

human T lymphocyte = experiment: FACS of cell penetrating property in human T lymphocyte; type: cell-based
Protocol: as §2
To investigate cell penetrating property of PEP1, the peptide was treated in human T lymphocyte, and FACS (Fluorescence-activated sell sorting) was performed as flow cytometry analysis. The analytical method used was same as described in above (1) HeLa cell line analysis. […] (FIG. 11 and FIG. 12)

MCF7 cell line = experiment: Flow cytometry depending on concentration and time, MCF7; type: cell-based, human
Protocol: as §4, §5

[4] = system: Huh7, MCF7 and HeLA cell lines; experiment: Flow cytometry depending on time; type: cell-based, human
Protocol: as §4, §5

[5] = system: THP1 (Human mononuclear cell line); experiment: Flow cytometry of cell penetrating property, THP1; type: cell-based
Description: as §6

Jurkat, THP1, Raji, K562 = experiment: Cell penetrating property depending on concentration, temperature and time in enriched cell lines; type: cell-based, human
Description: as §6

## siLuc conjugation with Mercaptoacetyl-Ahx-EARPALLTSRLRFIPK (EARPALLTSRLRFIPK-OH; not fully specified (N-terminus); printed as Mercaptoacetyl-Ahx-EARPALLTSRLRFIPK; also: conjugated to luciferase siRNA; UniProt O14746 611-626, looked up, fragment) [siLuc-pep1, luciferase siRNA conjugated to pep1 via thiol-maleimide]
Luciferase in Huh7 cells
  reduction of luciferase activation compared with the same peptide in siRNA combined with control: ~20%
Luciferase in CHO cell
  inhibition of luciferase activity: about 30%

## siLuc conjugation with Mercaptoacetyl-Ahx-YGRKKRRQRRR (not fully specified (N-terminus); printed as Mercaptoacetyl-Ahx-YGRKKRRQRRR; also: conjugated to luciferase siRNA; UniProt P04608 47-57, looked up, fragment) [siLuc-Tat(47-57)]
Luciferase in Huh7 cells
  reduction of luciferase activation compared with the same peptide in siRNA combined with control: no significant difference

## siLuc conjugation with Mercaptoacetyl-Ahx-LRALPKRPFISRLTEA [siLuc-scrambled pep1]
Luciferase in Huh7 cells
  reduction of luciferase activation compared with the same peptide in siRNA combined with control: no significant difference

## pep1-FITC: pep1 labeled with FITC at the C-terminal (lysine) (EARPALLTSRLRFIPK(FITC); listed as Homo sapiens)
Huh7, HepG2, CHO, bmDC
  penetration into the cytoplasm, C-terminal vs N-terminal FITC: higher cell penetrating property to penetrate into the cytoplasm than PEP1 combined with FITC at N-terminal
hPBMC
  absorption after treatment with HSP70 and HSP90 specific antibodies: remarkably reduced
hPBMC; control antibodies
  absorption after treatment with GAPDH or Enolase specific antibodies: no effect

## siLuc conjugation with Mercaptoacetyl-Ahx-RQIKIWFQNRRMKWKK [siLuc-Penetratin]
Luciferase in Huh7 cells
  reduction of luciferase activation compared with the same peptide in siRNA combined with control: approx. 28%

## YGRKKRRQRRR [TAT, reference compound]
Huh7, bmDC, CHO, COS7
  cell penetrating property depending on concentrations: tendency to increase
HepG2 cell line
  cell penetrating property at a concentration of 50 μM: increased
Raji (Human B cell line)
  cell penetrating property, TAT compared with PEP1: higher cell penetrating property than PEP1
[1]
  cell penetrating property, TAT compared with PEP1: higher cell penetrating property than PEP1
Human PBMC [2]; whole PBMC
  cell penetrating property depending on concentrations and time: increased
Human PBMC [3]
  effect of chemical treatment (MatCD and others) on cell penetrating property: increased
Jurkat cell line
  effect of chemical treatment on cell penetrating property: no effect
hPBMC
  absorption after treatment with HSP70 and HSP90 specific antibodies: not affected

## EARPALLTSRLRFIPK (listed as Homo sapiens) [pep1]
CHO and HepG2 cells
  cell penetrating ability depending on position of FITC: best when FITC was conjugated with lysine residue in C terminal
CHO and HepG2 cells; FITC-labelled peptides
  cell penetrating ability compared with TAT: better cell penetrating ability than TAT
Huh7 cell line
  cell penetrating property compared with TAT and control: lower than that of TAT but higher than that of control
Human T lymphocyte
  cell penetrating property, times higher than HIV derived TAT: 6 times
  cell penetrating property, times higher than control FITC: 25 times
Huh7, bmDC, CHO, COS7
  cell penetrating property depending on concentrations: tendency to increase
HepG2 cell line
  cell penetrating property at a concentration of 50 μM: decreased
MCF7 cell line; MCF cell line
  cell penetrating property, times higher than TAT: 4 times
MCF7 cell line; MCH7 cell line, 5 μM of the peptide, comparator not stated
  cell penetrating property, times higher in all time: 10 times
[4]
  cell penetrating property depending on time: increased
[5]
  cell penetrating property depending on time: decreased over time
Jurkat, THP1, Raji, K562; all cell lines
  cell penetrating property depending on concentrations: tendency to increase
  cell penetrating property depending on temperature: no difference
Jurkat, THP1, Raji, K562; cell lines other than THP1
  increase of cell penetrating property depending on time: more than 3 times
Human PBMC [2]; lymphocytes
  cell penetrating property, increase (times): 1.8 times
Human PBMC [2]; lymphocytes and monocytes
  cell penetrating property depending on concentrations: increased
  cell penetrating property depending on time: tendency to increase
Human PBMC [2]; monocytes, 5 hours
  increase of cell penetrating property compared to TAT: more than 20%
Human PBMC [2]; whole PBMC
  cell penetrating property depending on concentrations and time: increased
  cell penetrating property, times higher than TAT: 1.4 times
Human PBMC [3]
  effect of chemical treatment (MatCD and others) on cell penetrating property: tend to be suppressed
Jurkat cell line
  effect of chemical treatment on cell penetrating property: tendency to suppress
hPBMC
  absorption after treatment with HSP70 and HSP90 specific antibodies: remarkably reduced

From patent US10967000B2, “Cell-penetrating peptide, conjugate comprising same and composition comprising same” (GemVax & KAEL Co., Ltd., priority 2012, dated 2021)
